Results taken from patent US20100190856A1, “Novel Polyhydroxylated Compounds as Fatty Acid Synthase (FASN) Inhibitors” (UNIVERSIDAD COMPLUTENSE DE MADRID, priority 2007, published 2010).
Values joined by “and” are separate entries in the source; they are usually repeats but may differ in a detail not shown here. Equal entries are not always repeated. “Also recorded” adds a separate entry of the source. Where two headings read alike, the source gives them in different places.

How the values were obtained:
[1] = within 24 h, mice models; cited from earlier work
[2] = target: T1, rat CPT-1 (Rattus norvegicus, UniProt Q63704); test: Carnitine palmitoyltransferase 1 (CPT-1) assay, yeast mitochondria; format: biochemical; design: % CPT-1 activity: concentration or dose not given beside the values; conditions: for % CPT-1 activity: % of DMSO control, mitochondria of P. pastoris expressing rat CPT-1
T1 construct: made in house; host or cells: Pichia pastoris GS115 (isolated intact mitochondria)
T1 sequence (Q63704 1-772): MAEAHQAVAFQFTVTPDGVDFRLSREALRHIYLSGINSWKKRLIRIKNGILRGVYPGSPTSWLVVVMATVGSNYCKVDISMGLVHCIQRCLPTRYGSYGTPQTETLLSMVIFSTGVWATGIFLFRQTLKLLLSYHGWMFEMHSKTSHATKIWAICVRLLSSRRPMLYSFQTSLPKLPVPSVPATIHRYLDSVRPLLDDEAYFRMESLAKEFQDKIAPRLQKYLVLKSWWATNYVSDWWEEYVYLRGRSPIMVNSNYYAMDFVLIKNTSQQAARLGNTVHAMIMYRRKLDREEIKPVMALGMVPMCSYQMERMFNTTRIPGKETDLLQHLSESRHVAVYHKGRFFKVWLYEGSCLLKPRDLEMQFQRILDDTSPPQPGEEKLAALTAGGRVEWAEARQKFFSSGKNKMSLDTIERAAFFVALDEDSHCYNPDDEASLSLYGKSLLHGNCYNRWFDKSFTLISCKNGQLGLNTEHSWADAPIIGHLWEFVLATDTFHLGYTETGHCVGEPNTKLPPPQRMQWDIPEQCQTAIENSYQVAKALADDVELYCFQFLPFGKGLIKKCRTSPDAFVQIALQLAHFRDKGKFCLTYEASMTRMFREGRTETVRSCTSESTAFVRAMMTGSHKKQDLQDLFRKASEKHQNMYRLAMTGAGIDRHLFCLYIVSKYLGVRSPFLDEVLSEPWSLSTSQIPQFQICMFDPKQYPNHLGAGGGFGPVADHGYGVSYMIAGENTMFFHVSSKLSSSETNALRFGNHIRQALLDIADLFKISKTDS
Text: The expression plasmid pRCPT-Iβ/pHW010 (provided by Gebre Woldegiorgis, Beaverton, Oreg. Published in Woldegiorgis G. et al. Biochem. Biophys. Res. Commun. 2004, 325, 660-4.) was linearized in the GAP gene promoter by digestion with AvrII and integrated into the GAPp locus of P. pastoris GS115 by electroporation. Histidine prototrophic transformants were selected on YND plates and grown on YND medium. Mitochondria were isolated by disrupting the yeast cells with glass beads as previously described.
CPT activity was assayed by the forward exchange method using L-[^3H] carnitine as previously described (Nicot, C. et al., Biochem. Biophys. Res. Comm. 2004, 325, 2745-7). In a total volume of 0.5 mL, the standard enzyme assay mixture contained 0.2 mM L-[^3H]carnitine (˜5000 dpm/nmol), 80 μM palmitoyl-CoA, 20 mM HEPES (pH 7.0), 1% fatty acid-free albumin, and 40-75 mM KCl, with or without malonyl-CoA as indicated. Reactions were initiated by addition of isolated intact yeast mitochondria. The reaction was linear up to 4 min, and all incubations were done at 30° C. for 3 min. Reactions were stopped by addition of 6% perchloric acid and were then centrifuged at 2000 rpm for 7 min. The resulting pellet was suspended in water, and the product [^3H]palmitoylcarnitine was extracted with butanol at low pH. After centrifugation at 2000 rpm for 2 min, an aliquot of the butanol phase was transferred to a vial for radioactive counting.

[3] = tested on: cancer cells overexpressing FASN; conditions: cited from earlier work
[4] = tested on: MDA-MB-231 breast cancer cells; test: MTT cytotoxicity assay, MDA-MB-231 breast cancer cells; format: cell-based, human; conditions: MDA-MB-231 cells, 48 h, read-out: IC50, growth inhibition, MDA-MB-231
Protocol: (§1) MCF-7 and MDA-MB-231 breast cancer cells were obtained from the American Type Culture Collection (ATCC) and were routinely grown in Dulbecco's modified Eagle's medium (DMEM, Gibco) containing 10% fetal bovine serum (FBS, Bio-Whittaker), 1% L-glutamine, 1% sodium pyruvate, 50 U/mL penicillin and 50 μg/mL streptomycin. SK-Br3 breast cancer cells were obtained from Eucellbank (Universidad de Barcelona, Spain) and were passaged in McCoy's 5 A medium containing 10% FBS, 1% L-glutamine, 1% sodium pyruvate, 50 U/mL penicillin and 50 μg/mL streptomycin. Non-malignant fibroblasts N-1 were obtained from Eucellbank (Universidad de Barcelona, Spain) and were passaged in DMEM medium containing 10% FBS, 1% L-glutamine, 1% sodium pyruvate, 50 U/mL penicillin and 50 μg/mL streptomycin. The cells remained free of Mycoplasma and were propagated in adherent culture according to established protocols. Cells were maintained at 37° C. in a humidified atmosphere of 95% air and 5% CO2.
(§2) Drug sensitivity was determined using a standard colorimetric MTT (3-4,5-dimethylthiazol-2-yl-2,5-diphenyltetrazolium bromide) assay. Briefly, cells were plated out at a density of 7×10^3 cells/100 μL/well in 96-well microtitre plates and allowed an overnight period for attachment. Then the medium was removed and fresh medium along with various concentrations of the tested compound were added to the cultures for a period of 48 h. Following the treatment, the cells were fed with drug-free medium (100 μL/well) and 10 μL of MTT solution (5 mg/mL; Sigma, St. Louis, Mo.), and the incubation was prolonged for 3 h at 37° C. After carefully removing the supernatants, the MTT-formazan crystals formed by metabolically viable cells were dissolved in dimethyl sulphoxide (100 μL/well) and the absorbance was measured at 570 nm in a multi-well plate reader (Model Anthos Labtec 2010 1.7 reader).

[5] = tested on: SK-Br3 breast cancer cells; test: MTT cytotoxicity assay, SK-Br3 breast cancer cells; format: cell-based, human; conditions: MTT, 48 h, read-out: IC50, growth inhibition, SK-Br3
Protocol: as §1, §2

[6] = target: T2, FASN (Homo sapiens, UniProt P49327); test: Fatty acid synthase activity assay in SK-Br3 cells (NADPH oxidation, particle-free supernatants); format: cell-based; design: FASN activity, % of control cells / FASN activity reduced to / reduction of FASN activity: concentration or dose not given beside the values; conditions: for inhibition of FASN activity (in words): SK-Br3 cells treated 6, 12 and 24 hours; for FASN activity, % of control cells: SK-Br3 cells, 24 h exposure
T2 construct: endogenous in cells; host or cells: SK-Br3 breast cancer cells
Protocol: FASN activity of compounds a, b, e, f, h, i, k, m and q was assayed in particle-free supernatants by recording spectrophotometrically at 37° C. (Lambda Bio 20, Perkin Elmer, EUA; using UV Kinlab 2.80.02 software) the decrease of A340nm due to the oxidation of NADPH, as we previously described. After 6, 12, 24 h of exposure to the tested compound, the cells were harvested by treatment with trypsin-EDTA solution, pelleted by centrifugation, washed twice and resuspended in cold PBS. The cells were sonicated during 30 min at 4° C. (PSelecta ultrasons) and centrifuged for 15 min at 4° C. to keep supernatants particle-free. A sample was taken to measure the protein content by a BioRad assay (Bio-Rad Laboratories). One-hundred and twenty micrograms of protein were pre-incubated during 15 min at 37° C. in 0.2 M of potassium phosphate buffer, pH 7.0, for temperature equilibration. The sample was then added to the reaction mixture: 200 mM potassium phosphate buffer, pH 7.0, 1 mM EDTA (Sigma), 1 mM dithiothreitol (Sigma), 30 μM acetyl-CoA (Sigma), 0.24 mM NADPH (Sigma), in 0.3 mL reaction volume were monitored at 340 nm for 3 min to measure the background NADPH oxidation. After the addition of 50 μM of malonyl-CoA (Sigma), the reaction was assayed for additional 10 min to determine FASN-dependent oxidation of NADPH. Rates were corrected for the background rate of NADPH oxidation in the presence of acetyl-CoA. FASN activity was expressed in nmol NADPH oxidized min^−1 mg protein^−1.

[7] = tested on: MCF-7 breast cancer cells; test: MTT cytotoxicity assay, MCF-7 breast cancer cells; format: cell-based, human; conditions: 48 h, read-out: IC50, growth inhibition, MCF-7
Protocol: as §1, §2

[8] = tested on: Non-malignant fibroblasts N-1; test: MTT cytotoxicity assay, non-malignant fibroblasts N-1; format: cell-based; conditions: for IC50: non-malignant fibroblasts, MTT, 48 h, read-out: IC50, growth inhibition, Fibroblasts; for effects in cell death / morphology changes in non-malignant cells: up to doses three-fold their cytotoxic IC50 value in tumoral cells
Protocol: as §1, §2

[9] = rats, oral dose of 56 mg of EGCG; cited from earlier work
[10] = Weight loss in vivo (data not shown)
[11] = Homo sapiens, MCF7, MCF-7 cells

T2 sequence (P49327 whole entry): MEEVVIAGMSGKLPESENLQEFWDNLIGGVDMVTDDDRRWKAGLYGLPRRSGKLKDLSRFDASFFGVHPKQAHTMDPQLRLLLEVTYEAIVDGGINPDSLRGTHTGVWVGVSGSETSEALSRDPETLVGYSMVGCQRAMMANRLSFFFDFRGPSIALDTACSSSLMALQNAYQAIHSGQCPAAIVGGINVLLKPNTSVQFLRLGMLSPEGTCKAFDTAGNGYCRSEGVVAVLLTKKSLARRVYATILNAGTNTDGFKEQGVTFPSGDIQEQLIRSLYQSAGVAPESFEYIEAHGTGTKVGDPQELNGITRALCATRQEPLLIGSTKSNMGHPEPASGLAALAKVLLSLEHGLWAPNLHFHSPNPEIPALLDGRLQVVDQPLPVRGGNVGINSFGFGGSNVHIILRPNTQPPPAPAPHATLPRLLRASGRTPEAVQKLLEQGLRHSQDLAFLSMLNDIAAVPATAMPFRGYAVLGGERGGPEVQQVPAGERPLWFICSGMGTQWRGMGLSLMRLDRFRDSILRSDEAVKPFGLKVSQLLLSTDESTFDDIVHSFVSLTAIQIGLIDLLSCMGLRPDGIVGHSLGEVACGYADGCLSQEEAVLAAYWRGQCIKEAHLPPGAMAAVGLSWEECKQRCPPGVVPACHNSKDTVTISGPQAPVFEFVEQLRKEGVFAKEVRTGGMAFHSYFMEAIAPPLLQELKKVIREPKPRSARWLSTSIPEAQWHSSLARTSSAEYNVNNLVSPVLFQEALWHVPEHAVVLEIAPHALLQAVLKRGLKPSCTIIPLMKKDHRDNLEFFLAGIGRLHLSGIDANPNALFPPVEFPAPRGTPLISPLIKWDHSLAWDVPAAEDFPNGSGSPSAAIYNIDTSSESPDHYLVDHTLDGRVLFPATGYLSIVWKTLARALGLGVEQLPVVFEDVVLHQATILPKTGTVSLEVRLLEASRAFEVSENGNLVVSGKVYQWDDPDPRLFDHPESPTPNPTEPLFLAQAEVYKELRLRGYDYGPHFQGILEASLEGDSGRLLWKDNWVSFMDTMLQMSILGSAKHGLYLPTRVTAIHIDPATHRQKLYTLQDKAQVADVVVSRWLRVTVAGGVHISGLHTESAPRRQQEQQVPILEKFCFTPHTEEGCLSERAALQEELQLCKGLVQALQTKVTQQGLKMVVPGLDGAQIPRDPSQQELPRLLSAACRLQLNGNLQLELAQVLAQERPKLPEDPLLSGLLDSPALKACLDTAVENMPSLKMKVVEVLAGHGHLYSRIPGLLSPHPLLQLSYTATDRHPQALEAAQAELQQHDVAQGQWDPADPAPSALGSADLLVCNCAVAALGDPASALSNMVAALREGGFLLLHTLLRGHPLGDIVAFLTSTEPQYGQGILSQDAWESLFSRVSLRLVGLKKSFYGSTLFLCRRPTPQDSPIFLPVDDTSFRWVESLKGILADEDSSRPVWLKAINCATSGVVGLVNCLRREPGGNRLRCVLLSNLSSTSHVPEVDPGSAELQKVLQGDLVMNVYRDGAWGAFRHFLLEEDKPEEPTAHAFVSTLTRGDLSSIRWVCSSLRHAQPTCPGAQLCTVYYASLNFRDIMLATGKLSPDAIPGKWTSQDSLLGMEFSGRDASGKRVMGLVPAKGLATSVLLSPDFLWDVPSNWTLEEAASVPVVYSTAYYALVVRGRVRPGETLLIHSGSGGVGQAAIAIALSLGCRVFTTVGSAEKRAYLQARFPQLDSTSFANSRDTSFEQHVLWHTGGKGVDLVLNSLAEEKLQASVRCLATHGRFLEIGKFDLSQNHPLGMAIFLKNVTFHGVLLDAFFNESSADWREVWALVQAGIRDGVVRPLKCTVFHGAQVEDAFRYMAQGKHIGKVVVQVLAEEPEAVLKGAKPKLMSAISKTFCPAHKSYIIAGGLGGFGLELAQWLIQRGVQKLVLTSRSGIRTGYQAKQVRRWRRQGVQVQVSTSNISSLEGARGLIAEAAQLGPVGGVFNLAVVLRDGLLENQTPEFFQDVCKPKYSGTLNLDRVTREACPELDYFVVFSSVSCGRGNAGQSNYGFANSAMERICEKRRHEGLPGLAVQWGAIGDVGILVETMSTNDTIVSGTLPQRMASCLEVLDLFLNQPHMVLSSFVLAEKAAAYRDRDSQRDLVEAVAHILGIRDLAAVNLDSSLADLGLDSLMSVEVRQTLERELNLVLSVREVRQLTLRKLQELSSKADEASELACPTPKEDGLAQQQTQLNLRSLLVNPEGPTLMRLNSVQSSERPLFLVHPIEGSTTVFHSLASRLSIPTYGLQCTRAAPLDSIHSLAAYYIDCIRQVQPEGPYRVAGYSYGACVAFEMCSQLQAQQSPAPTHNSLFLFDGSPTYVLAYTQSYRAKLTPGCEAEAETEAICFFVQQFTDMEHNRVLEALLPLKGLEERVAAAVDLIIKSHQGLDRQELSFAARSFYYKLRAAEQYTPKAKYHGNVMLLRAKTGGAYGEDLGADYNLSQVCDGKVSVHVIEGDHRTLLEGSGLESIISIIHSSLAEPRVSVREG

SMILES | stimulation of CPT-1 activity (in words) [2] | melting point [°C] | % CPT-1 activity [2] [%] | inhibition of FASN activity (in words) [6] | IC50 ([4]; Homo sapiens) [µM] | IC50 ([5]; Homo sapiens, SK-BR-3, 48 h) [µM] | IC50 [7, 11] [µM] | further results
O=C(O[C@@H]1Cc2c(O)cc(O)cc2O[C@@H]1c1cc(O)c(O)c(O)c1)c1cc(O)c(O)c(O)c1 [EGCG, (−)-epigallocatechin-3-gallate, reference compound] |  |  | 81 ± 4 | inhibit FASN activity; also recorded: decreased in a time-dependent manner |  |  |  | inhibitory ability lower than that of C75 and cerulenin [3]: 4 fold; IC50 [4]: 197 ± 15.3 µM; IC50 [5]: 150 µM and 149 µM; IC50 ([7]; MCF-7 cells): 205 ± 7.1 µM; IC50 [8]: 125 µM; effects in cell death / morphology changes in non-malignant cells [8]: massive cell death; EGCG absorbed [9]: 0.012%
O=C(Oc1ccccc1OC(=O)c1cc(O)c(O)c(O)c1)c1cc(O)c(O)c(O)c1 [a, 1,2-bis[(3,4,5-trihydroxybenzoyl)oxy]benzene] |  | 210 |  |  | 163 ± 5.2 | 126 ± 5.2 | 165 ± 8.2 | 
O=C(Oc1cc2ccccc2cc1OC(=O)c1cc(O)c(O)c(O)c1)c1cc(O)c(O)c(O)c1 [e, 2,3-bis[(3,4,5-trihydroxybenzoyl)oxy]naphthalene] | did not stimulate CPT-1 activity | 182 to 183 | 87.91 ± 7 | inhibit FASN activity; also recorded: decreased in a time-dependent manner | 136 ± 26.9 | 76.5 ± 9.2 | 89 ± 28.7 | FASN activity, % of control cells [6]: 69%; weight loss in vivo [10]: without inducing weight loss in vivo
O=C(Oc1ccc(OC(=O)c2cc(O)c(O)c(O)c2)c(-c2ccccc2)c1)c1cc(O)c(O)c(O)c1 [o, 2,5-bis[(3,4,5-trihydroxybenzoyl)oxy]-1,1′-biphenyl] | did not | 114 to 116 | 86.80 ± 14 |  | 40 ± 2.8 | 17.5 ± 2.6 | 10 ± 2.8 | 
O=C(Oc1ccc(-c2ccc(OC(=O)c3cc(O)c(O)c(O)c3)cc2)cc1)c1cc(O)c(O)c(O)c1 [q, 4,4′-bis[(3,4,5-trihydroxybenzoyl)oxy]-1,1′-biphenyl] | did not stimulate CPT-1 activity |  | 84.38 ± 4 | inhibit FASN activity; also recorded: decreased in a time-dependent manner | 5.2 ± 3.5 | 4 ± 1 | 2.5 ± 0.1 | IC50 [5]: 4.4 ± 1.4 µM; FASN activity, % of control cells [6]: 20%; reduction of FASN activity ([6]; after 24 h of cell exposure): 50%; IC50 ([8]; Fibroblast): 13 ± 4 µM; effect on non-malignant cells / normal fibroblasts ([8]; at concentrations similar to IC50): not affected; effects in cell death / morphology changes in non-malignant cells [8]: No significant effects; weight loss in vivo [10]: without inducing weight loss in vivo

Continued, in another order:

stimulation of CPT-1 activity (in words) [2] | melting point [°C] | SMILES | % CPT-1 activity [2] [%] | inhibition of FASN activity (in words) [6] | IC50 ([4]; Homo sapiens) [µM] | IC50 ([5]; Homo sapiens, SK-BR-3, 48 h) [µM] | IC50 [7, 11] [µM] | further results
stimulates CPT-1 activity |  | C=C1C(=O)O[C@H](CCCCCCCC)[C@H]1C(=O)O [Compound C75, (2R,3S)-4-methylene-2-octyl-5-oxotetrahydrofuran-3-carboxylic acid, reference compound] |  |  |  |  |  | loss of body mass [1]: up to 12%
 | 194 to 195 | O=C(Oc1cccc(OC(=O)c2cc(O)c(O)c(O)c2)c1)c1cc(O)c(O)c(O)c1 [b, 1,3-bis[(3,4,5-trihydroxybenzoyl)oxy]benzene] |  |  | 173 ± 40.2 | 42 ± 7.1 | 162 ± 17.8 | 
 | 82 to 84 | O=C(Oc1ccc(OC(=O)c2ccccc2)c(-c2ccccc2)c1)c1cc(O)c(O)c(O)c1 [p, 6-(benzoyloxy)-1,1′-biphenyl-3-yl 3,4,5-trihydroxybenzoate] |  |  | > 150 | 73.5 ± 4.9 |  | 
